# Literature values as cited in US20090104287A1, “Protocol for AIDS prevention and treatment by nutritional methods” (priority 2002, published 2009).
# Columns and labels:
# [1] = system: HIV seropositive patients; conditions: supplementation
# [2] = system: HIV-infected patients; conditions: supplementation (usually given as N-acetyl cysteine)
smiles,measurement,setting,value
CC(=O)N[C@@H](CS)C(=O)O [N-acetyl cysteine],replenishing whole blood and T cell glutathione,[1],often seems effective in replenishing both whole blood and T cell glutathione
N[C@@H](CS)C(=O)O [cysteine],glutathione in CD4 T cells,[2],replenishes low glutathione in CD4 T cells
